Source: US20090054500A1, “Composition and methods useful in preventing cardiac hypertrophy” (The Brigham and Women's Hospital, Inc., priority 2005, published 2009)
“And” between values parts separate entries of the source, which are not always exact repeats. Equal entries are not always repeated. Where two headings read alike, the source gives them in different places.

Legend:
[1] = system: mouse cardiomyoctes
Procedure: Cell hypertrophy was determined by the incorporation of ^3H-leucine.

[2] = system: cardiomyocytes; settings: cardiomyocytes in vitro
[3] = system: gridlock phenotype associated with mutations in the CHF1 gene in zebrafish; settings: Peterson, et al., Nat. Biotechnol. 22:595-599 (2004); cited from earlier work
[4] = system: VEGF; settings: Peterson, et al., Nat. Biotechnol. 22:595 (2004); cited from earlier work

SMILES: COc1ccc(SCCc2ccncc2)cc1.Cl [GS4012, 4-(2-(4-Methoxyphenylsulfanyl)ethyl)pyridine, HCl]
- incorporation of 3H-leucine (cell hypertrophy), mean ([1]; Table 2, GS4012 + FCS, mean of 12 tests): 340.5825 counts per minute
- incorporation of 3H-leucine (cell hypertrophy), mean ([1]; Table 2, GS4012, no FCS, mean of 12 tests): 397.6667 counts per minute
- incorporation of 3H-leucine (cell hypertrophy), mean ([1]; Table 3, WT, GS4012 2.5 μg/ml, no FCS, mean of 8 tests, HCl): 329.4 counts per minute and 329.37 counts per minute
- incorporation of 3H-leucine (cell hypertrophy), mean ([1]; Table 3, WT, GS4012 + FCS, mean of 8 tests, HCl): 419.7925 counts per minute and 419.8 counts per minute
- FCS induction of cardiomyocyte proliferation when GS4012 was present ([1]; cpm for vehicle+GS4012 compared with vehicle+GS4012+FCS): did not occur
- effect on phenylephrine-induced hypertrophy [2]: prevent phenylephrine-induced hypertrophy
- effect on gridlock phenotype [3]: suppresses the gridlock phenotype
- VEGF and VEGF-mediated vessel formation [4]: induces
